Publication PMC8828861 (Communications Biology, 2022)

Target: M. tuberculosis Rho (MtbRho) (Mycobacterium tuberculosis, UniProt P9WHF3, M495L)
Type: biochemical

Q: `Nc1ncnc2c1ncn2[C@@H]1O[C@H](COP(=O)(O)OP(=O)(O)OP(=O)(O)O)[C@@H](O)[C@H]1O` [ATP] was tested. Which “TLC NTP hydrolysis assay with poly[rC]” value did it give?
A: the M495L mutant hydrolyses ATP at a steady-state rate similar to that measured for EcRho
